Numbers after ± are expanded uncertainties.

Experimental findings from the NIST ThermoML archive (doi:10.1016/j.jct.2005.10.018) are described below.

For the series the following is noted: 298.15 K; 101.33 kPa; Liquid; Vibrating tube method.
For `C=C1CC[C@H]2C[C@@H]1C2(C)C` [(1S,5S)-6,6-dimethyl-2-methylenebicyclo[3.1.1]heptane], the mass density (as a rule, mass per unit of volume) stood at 866.84 ± 0.3 kg/m3.
Regarding `C=C(C)[C@H]1CC=C(C)CC1` [(R)-1-methyl-4-(1-methylethenyl)cyclohexene], the mass density was 837.31 ± 0.85 kg/m3.
Consider `CC1=CC[C@H]2C[C@@H]1C2(C)C` [(S)-2-pinene], for which the mass density was 853.88 ± 0.3 kg/m3.
The figure for `CCO` [ethanol] is 785.24 ± 0.16 kg/m3.
